The text below walks through data of PubChem BioAssay (NCI).

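In this assay, cells in 96-well plates receive the compound at five concentrations for 48 hours. Endpoints are linearly interpolated between the surrounding concentrations. Definition used: TGI = concentration required for complete inhibition of growth.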

Some test systems named below: COLO 205 colon; OVCAR-3 ovarian; LOX IMVI melanoma; SK-MEL-28 melanoma; RXF 393 renal; SF-295 CNS; MDA-MB-231 breast; SR leukemia; MOLT-4 leukemia; SK-MEL-2 melanoma; MALME-3M melanoma; UACC-257 melanoma.
Common to all, as to assay: NCI tumour cell line growth inhibition, 48 h

For `CNc1ccc(C)cc1S(=O)(=O)c1ccccc1[N+](=O)[O-]`, the TGI in the assay on COLO 205 colon, in the assay with OVCAR-3 ovarian, in the assay with LOX IMVI melanoma, with SK-MEL-28 melanoma, in the assay with RXF 393 renal and with SF-295 CNS was greater than 100 µM throughout. In addition, the TGI in the assay on MDA-MB-231 breast, with SR leukemia, with MOLT-4 leukemia, in the assay on SK-MEL-2 melanoma and in the assay on MALME-3M melanoma was greater than 100 µM each time.

Take `COc1ccc(C[C@@H]2OC3(C=CC(=O)CC3Sc3ccccc3)O[C@H]2Cc2ccc(OC)cc2)cc1` (some centres not stated): the TGI was 3.36 µM with COLO 205 colon; 3.16 µM in the assay on UACC-257 melanoma; 3.15 µM with OVCAR-3 ovarian; 1.72 µM in the assay on LOX IMVI melanoma; 3.35 µM in the assay on SK-MEL-28 melanoma; 0.348 µM in the assay with RXF 393 renal. For the same compound, the TGI worked out at 4.69 µM in the assay on SF-295 CNS; 7.35 µM in the assay with MDA-MB-231 breast; 0.583 µM in the assay with SR leukemia; 2.18 µM in the assay with MOLT-4 leukemia; 3.05 µM in the assay with SK-MEL-2 melanoma; 4.02 µM with MALME-3M melanoma.

`O=C(Oc1ccc(C(c2c(O)c3ccccc3oc2=O)c2c(O)c3ccccc3oc2=O)cc1)c1ccc(C(=O)c2ccccc2)cc1`: the TGI in the assay with COLO 205 colon is greater than 100 µM; in the assay with UACC-257 melanoma, 33.9 µM; in the assay on OVCAR-3 ovarian, 36.5 µM; in the assay with LOX IMVI melanoma it was 52.1 µM; in the assay with SK-MEL-28 melanoma, 36.5 µM; in the assay with RXF 393 renal it was 83.6 µM. For the same compound, the TGI is 51.3 µM with SF-295 CNS; greater than 100 µM in the assay on MDA-MB-231 breast; 55.7 µM in the assay on SR leukemia; 41.3 µM with MOLT-4 leukemia; 35.2 µM in the assay with SK-MEL-2 melanoma.

For the compound `COC(=O)C1=C(N)C2=C(N)Oc3ccccc3C2CC1=C(C#N)C#N` (configuration not stated), the TGI with COLO 205 colon was 44.1 µM; with UACC-257 melanoma, greater than 100 µM; in the assay on OVCAR-3 ovarian it was greater than 100 µM; in the assay with LOX IMVI melanoma, 44.2 µM; with RXF 393 renal it was greater than 100 µM; with SF-295 CNS, 90.2 µM. Moreover, the TGI is 59.4 µM with MDA-MB-231 breast; greater than 100 µM with SR leukemia; greater than 100 µM in the assay with MOLT-4 leukemia; greater than 100 µM with SK-MEL-2 melanoma; 58.1 µM with MALME-3M melanoma.

Turning to `COC1=CC(=O)C2=C(C1=O)[C@H]1CC[C@]3(C)C(=O)CC[C@H]3[C@@H]1CC2`, the TGI with COLO 205 colon is greater than 100 µM; in the assay on UACC-257 melanoma it was 58.7 µM; in the assay on OVCAR-3 ovarian it was 52.3 µM; with LOX IMVI melanoma, 35.4 µM; with SK-MEL-28 melanoma, greater than 100 µM; in the assay with RXF 393 renal, 67.8 µM. Also, the TGI is greater than 100 µM with SF-295 CNS; 16.9 µM in the assay on MDA-MB-231 breast; greater than 100 µM with SR leukemia; greater than 100 µM in the assay on MOLT-4 leukemia; 36.3 µM with SK-MEL-2 melanoma.

Take `CC1=C(C)C2(C#N)C(=O)N3C(=NC(c4ccco4)NC3c3ccco3)C2(C#N)C(c2ccco2)N1` (configuration not stated): the TGI in the assay with COLO 205 colon, in the assay on UACC-257 melanoma, in the assay with LOX IMVI melanoma, with SK-MEL-28 melanoma, in the assay with RXF 393 renal and with SF-295 CNS was greater than 100 µM each time. For the same compound, the TGI in the assay on MDA-MB-231 breast, in the assay on SR leukemia, with MOLT-4 leukemia, with SK-MEL-2 melanoma and in the assay on MALME-3M melanoma was greater than 100 µM throughout.

Regarding `CC(=O)O[C@H]1[C@@H](OC2CCCC2(c2ccccc2)c2ccccc2)O[N+]([O-])=C[C@@H]1c1ccccc1` (some centres not stated), the TGI with COLO 205 colon is greater than 46 µM; with UACC-257 melanoma, 23.6 µM; in the assay on OVCAR-3 ovarian, 21 µM; in the assay on LOX IMVI melanoma it was 5.04 µM; with SK-MEL-28 melanoma, 8.65 µM; with RXF 393 renal, 8.48 µM. Moreover, the TGI with SF-295 CNS was 21.7 µM; in the assay with MDA-MB-231 breast, 40.9 µM; in the assay on SR leukemia, greater than 20.3 µM; in the assay on MOLT-4 leukemia it was 7.54 µM; with SK-MEL-2 melanoma it was 24.1 µM.

As for `c1ccc(CN2C3C4N(Cc5ccccc5)C2C2N(Cc5ccccc5)C(C(N2Cc2ccccc2)N4Cc2ccccc2)N3Cc2ccccc2)cc1`, the TGI with COLO 205 colon, with UACC-257 melanoma, in the assay on OVCAR-3 ovarian, in the assay on LOX IMVI melanoma, with SK-MEL-28 melanoma and with RXF 393 renal was greater than 100 µM in each case. The TGI in the assay with SF-295 CNS, in the assay with MDA-MB-231 breast, with SR leukemia, in the assay on MOLT-4 leukemia and with SK-MEL-2 melanoma was greater than 100 µM in each case.

In the case of `CCc1cccc(C(C)C)c1NC(=O)C(=O)Nn1c(=S)[nH]c2ccccc2c1=O`, the TGI in the assay with UACC-257 melanoma, with OVCAR-3 ovarian, in the assay on LOX IMVI melanoma, in the assay with SK-MEL-28 melanoma, with RXF 393 renal and in the assay on SF-295 CNS was greater than 100 µM in each case. The TGI with MDA-MB-231 breast, with SR leukemia, with MOLT-4 leukemia, with SK-MEL-2 melanoma and in the assay on MALME-3M melanoma was greater than 100 µM in each case.

In the case of `Cc1ccc(S(=O)(=O)NC(=O)NC(CCCCN)C(=O)O)cc1` (configuration not stated), the TGI with COLO 205 colon, in the assay on UACC-257 melanoma, with LOX IMVI melanoma, in the assay on SK-MEL-28 melanoma, in the assay on RXF 393 renal and with SF-295 CNS was greater than 100 µM throughout. Further, the TGI with MDA-MB-231 breast, with SR leukemia, in the assay with MOLT-4 leukemia, in the assay on SK-MEL-2 melanoma and in the assay with MALME-3M melanoma was greater than 100 µM in each case.

As for `O=c1c2c3c(sc2nc2n1sc1nc4sc5c(c4c(=O)n12)CCCC5)CCCC3`, the TGI in the assay on COLO 205 colon is 64.7 µM; with UACC-257 melanoma, greater than 100 µM; with OVCAR-3 ovarian it was greater than 62.5 µM; with LOX IMVI melanoma, greater than 100 µM; in the assay on SK-MEL-28 melanoma it was greater than 100 µM; with RXF 393 renal, 38.5 µM. For the same compound, the TGI in the assay with SF-295 CNS was greater than 100 µM; in the assay with MDA-MB-231 breast, greater than 69.5 µM; with SR leukemia it was greater than 84.9 µM; in the assay on MOLT-4 leukemia, greater than 66.9 µM; with SK-MEL-2 melanoma it was greater than 100 µM.
